According to patent US7993884B2, “Beta-xylosidase for conversion of plant cell wall carbohydrates to simple sugars” (The United States of America as represented by the …, priority 2006, dated 2011):
Values joined by “and” are separate entries in the source; they are usually repeats but may differ in a detail not shown here. Identical values can stand only once. Like-named read-outs stand apart in the source and are kept apart here.

Key:
SXA [1] = target: T1, SXA (Selenomonas ruminantium, UniProt O52575); assay: SXA-catalyzed hydrolysis of 4NP-glycoside substrates, initial rates (Methods A and B); assay type: biochemical; conditions: for Relative Rate: 5 mM 4NP glycoside, 100 mM succinate-NaOH, pH 5.3, 25° C., Method A, initial rate relative to 4NPX;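 for all read-outs here: initial rates from 4-nitrophenol release, tracked by absorbance over roughly 0.3 min and converted using product-minus-substrate extinction differences, in 1 mL mixtures started by enzyme addition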
[2] = target: T2, Selenomonas ruminantium GA192 β-D-xylosidase (SXA), wild type, SEQ ID NO: 2 (Pseudoselenomonas ruminantium, UniProt O52575); assay: Steady-state kinetics of SXA with 4NPX2, A2 and X2-X6 by HPLC (Example 1)
SXA [3] = target: T1, SXA; conditions: for Km: 100 mM succinate-NaOH, pH 5.3, 25° C. (Example 1)
SXA [4] = target: T1, SXA; conditions: for Km / kcat: 100 mM succinate-NaOH, improved quench (Example 3); for Km / kcat / kcat lower than previous determination (Example 1) / kcat/Km lower than previous determination (Example 1): pH 5.3, 25° C.; for factor by which kcat of SXA is higher than that of the Bacillus pumilus enzyme: SXA pH 5.3, 25° C. vs B. pumilus pH 7.15, 25° C.
[5] = target: T2, Selenomonas ruminantium GA192 β-D-xylosidase (SXA), wild type, SEQ ID NO: 2; assay: Steady-state kinetics of SXA with X2-X6, improved quenching, HPLC (Example 3); conditions: for factor by which kcat is higher than that of the Bacillus pumilus enzyme: SXA pH 5.3 vs B. pumilus pH 7.15, 25° C
[6] = substrate: O=[N+]([O-])c1ccc(O[C@@H]2OC[C@@H](O)[C@H](O)[C@H]2O)cc1; assay: purified protein, by the assay type; conditions: other: 100 mM succinate-NaOH, pH 5.3, 25° C, Method A
[7] = 100 mM succinate-NaOH, pH 5.3, 25° C
[8] = pH 5.3, 25° C (improved technique), approximate
[9] = hydrolysis of X6, pH 5.30, 25° C.
[10] = pH 5.3, 25° C (Example 1), approximate

## O=[N+]([O-])c1ccc(O[C@H]2O[C@H](CO)[C@@H](O)[C@H](O)[C@H]2O)cc1 [4-Nitrophenyl-α D-glucopyranoside]
SXA [1]
  Relative Rate: <10^−6

## O=[N+]([O-])c1ccc(O[C@H]2O[C@H](CO)[C@H](O)[C@H](O)[C@H]2O)cc1 [4-Nitrophenyl-α-D-galactopyranoside]
SXA [1]
  Relative Rate: <10^−6

## O=[N+]([O-])c1ccc(O[C@H]2O[C@H](CO)[C@@H](O)[C@H](O)[C@@H]2O)cc1 [4-Nitrophenyl-α-D-mannopyranoside]
SXA [1]
  Relative Rate: <10^−6

## O=[N+]([O-])c1ccc(O[C@H]2OC[C@@H](O)[C@H](O)[C@H]2O)cc1 [4-Nitrophenyl-α-D-xylopyranoside]
SXA [1]
  Relative Rate: <10^−6

## O=[N+]([O-])c1ccc(O[C@@H]2OC[C@H](O)[C@H](O)[C@H]2O)cc1 [4-Nitrophenyl-α-L-arabinopyranoside]
SXA [1]
  Relative Rate: <10^−6

## C[C@@H]1O[C@@H](Oc2ccc([N+](=O)[O-])cc2)[C@@H](O)[C@H](O)[C@@H]1O [4-Nitrophenyl-α-L-fucopyranoside]
SXA [1]
  Relative Rate: <10^−6

## C[C@@H]1O[C@@H](Oc2ccc([N+](=O)[O-])cc2)[C@H](O)[C@H](O)[C@H]1O [4-Nitrophenyl-α-L-rhamnopyranoside]
SXA [1]
  Relative Rate: <10^−6

## C[C@H]1O[C@@H](Oc2ccc([N+](=O)[O-])cc2)[C@H](O)[C@@H](O)[C@H]1O [4-Nitrophenyl-β-D-fucopyranoside]
SXA [1]
  Relative Rate: <10^−6

## O=[N+]([O-])c1ccc(O[C@@H]2O[C@H](CO)[C@H](O)[C@H](O)[C@H]2O)cc1 [4-Nitrophenyl-β-D-galactopyranoside]
SXA [1]
  Relative Rate: <10^−6

## O=[N+]([O-])c1ccc(O[C@@H]2O[C@H](CO)[C@@H](O)[C@H](O)[C@H]2O)cc1 [4-Nitrophenyl-β-D-glucopyranoside]
SXA [1]
  Relative Rate: <10^−6

## O=[N+]([O-])c1ccc(O[C@@H]2O[C@H](CO)[C@@H](O)[C@H](O)[C@@H]2O)cc1 [4-Nitrophenyl-β-D-mannopyranoside]
SXA [1]
  Relative Rate: <10^−6

## O=[N+]([O-])c1ccc(O[C@H]2OC[C@H](O)[C@H](O)[C@H]2O)cc1 [4-Nitrophenyl-β-L-arabinopyranoside]
SXA [1]
  Relative Rate: <10^−6
SXA [1]; reaction conditions of Table 2, later attributed to a contaminant
  rate relative to that of 4NPX, first inspection: less than 0.1%

## C[C@@H]1O[C@H](Oc2ccc([N+](=O)[O-])cc2)[C@@H](O)[C@H](O)[C@@H]1O [4-Nitrophenyl-β-fucopyranoside]
SXA [1]
  Relative Rate: <10^−6

## OC[C@@H]1O[C@@H](OC[C@@H]2OC(O)[C@H](O)[C@H]2O)[C@H](O)[C@H]1O (stereo partly drawn) [A2, 1,5-α-L-arabinobiose]
[2]
  factor by which kcat is reduced vs X2: 5600 fold
[2]; [7]
  kcat: 0.074 ± 0.003 s⁻¹
[2]; 4NPA larger / A2 reduced
  kcat factor between 4NPA and A2: 36 fold
[2]; pH 5.3, 25° C, A2 = 1
  relative kcat value: 1
SXA [3]
  Km: 1200 ± 100 µM
SXA [3]; pH 5.3, 25° C.
  factor by which kcat is reduced in comparison to 4NPA: 36
  factor by which kcat is reduced in comparison to X2: 5600
SXA [3]; pH 5.3 and 25° C., relative to A2
  relative kcat values: 1

## OC1OC[C@@H](O[C@@H]2OC[C@@H](O[C@@H]3OC[C@@H](O)[C@H](O)[C@H]3O)[C@H](O)[C@H]2O)[C@H](O)[C@H]1O (stereo partly drawn) [X3, 1,4-β-D-xylotriose]
[2]; [7]
  kcat: 172 s⁻¹ and 172 ± 14 s⁻¹
SXA [4]
  pH-independent kcat: 98.0±2.3
  Km: 2120 ± 100 µM
  kcat: approximately 95.1 s^−1
  factor by which kcat of SXA is higher than that of the Bacillus pumilus enzyme: 32
  kcat lower than previous determination (Example 1): 45%
  kcat/Km lower than previous determination (Example 1): 1%
SXA [4]; Eq. 6, I=0.3 M, 25° C.
  pKa1 of kcat versus pH: 3.21
  pKa1 of kcat/Km versus pH: 4.80±0.06
  pKa2 of kcat versus pH: 7.53±0.06
  pKa2 of kcat/Km versus pH: 7.30±0.04
SXA [4]; Eq. 6, I=0.3 M, 25° C., listed as 1,4-β-D-xylotriose
  pKa1 of kcat versus pH: 3.21±0.27
SXA [4]; Eq. 7, I=0.3 M, 25° C.
  pKa1 of 1/Km versus pH: 4.76±0.05
  pKa2 of 1/Km versus pH: 7.76±0.14
SXA [4]; from pH dependencies of 1/Km
  lower affinity of dianionic SXA (D14^−E186^−) than monoanionic SXA (D14^−E186^H): 3.1 fold and 3 fold
SXA [4]; kcat/Km versus pH, Eq. 6, I=0.3 M, 25° C. (FIG. 20)
  pH-independent kcat/Km: 58.9±3.3 mM^−1s^−1
[5]; [7]
  kcat: 95.1 ± 1.5 s⁻¹
[5]
  factor by which kcat is higher than that of the Bacillus pumilus enzyme: 32
[5]; from pH dependence of 1/Km
  affinity of dianionic SXA (D14^−E186^−), lower than that of monoanionic SXA (D14^−E186^H): 3.1 fold and 3 fold
[5]; [8]
  kcat: approximately 95.1 sec^−1
[5]; pH profile, I=0.3 M, 25° C
  pH-independent kcat: 98.0±2.3
SXA [3]
  Km: 3800 µM
SXA [3]; hydrolysis of X4, pH 5.30, 25° C.
  time of peak height of intermediate product, observed: 4130 s
SXA [3]; [9]
  time of peak height of intermediate product, observed: 10822 s

## OC1OC[C@@H](O[C@@H]2OC[C@@H](O[C@@H]3OC[C@@H](O[C@@H]4OC[C@@H](O)[C@H](O)[C@H]4O)[C@H](O)[C@H]3O)[C@H](O)[C@H]2O)[C@H](O)[C@H]1O (stereo partly drawn) [X4, 1,4-β-D-xylotetraose]
[2]; [7]
  kcat: 150 s⁻¹ and 150 ± 5 s⁻¹
[2]; [10]
  kcat: approximately 150 sec^−1
SXA [4]
  Km: 2750 ± 230 µM
  kcat: approximately 91.6 s^−1
  factor by which kcat of SXA is higher than that of the Bacillus pumilus enzyme: 31
  kcat lower than previous determination (Example 1): 39%
  kcat/Km lower than previous determination (Example 1): 12%
[5]; [7]
  kcat: 91.6 ± 2.3 s⁻¹
[5]
  factor by which kcat is higher than that of the Bacillus pumilus enzyme: 31
[5]; [8]
  kcat: approximately 91.6 sec^−1
SXA [3]
  Km: 4000 µM
SXA [3]; [9]
  time of peak height of intermediate product, observed: 8260 s

## OC1OC[C@@H](O[C@@H]2OC[C@@H](O[C@@H]3OC[C@@H](O[C@@H]4OC[C@@H](O[C@@H]5OC[C@@H](O)[C@H](O)[C@H]5O)[C@H](O)[C@H]4O)[C@H](O)[C@H]3O)[C@H](O)[C@H]2O)[C@H](O)[C@H]1O (stereo partly drawn) [X5, 1,4-β-D-xylopentaose]
[2]; [7]
  kcat: 150 s⁻¹ and 150 ± 15 s⁻¹
[2]; [10]
  kcat: approximately 150 sec^−1
SXA [4]
  Km: 2860 ± 380 µM
  kcat: approximately 77.2 s^−1
  factor by which kcat of SXA is higher than that of the Bacillus pumilus enzyme: 20
  kcat lower than previous determination (Example 1): 49%
  kcat/Km lower than previous determination (Example 1): 34%
[5]; [7]
  kcat: 77.2 ± 3.6 s⁻¹
[5]
  factor by which kcat is higher than that of the Bacillus pumilus enzyme: 20
[5]; [8]
  kcat: approximately 77.2 sec^−1
SXA [3]
  Km: 3700 µM
SXA [3]; [9]
  time of peak height of intermediate product, observed: 3138 s

## OC1OC[C@@H](O[C@@H]2OC[C@@H](O[C@@H]3OC[C@@H](O[C@@H]4OC[C@@H](O[C@@H]5OC[C@@H](O[C@@H]6OC[C@@H](O)[C@H](O)[C@H]6O)[C@H](O)[C@H]5O)[C@H](O)[C@H]4O)[C@H](O)[C@H]3O)[C@H](O)[C@H]2O)[C@H](O)[C@H]1O (stereo partly drawn) [X6, 1,4-β-D-xylohexaose]
[2]; [7]
  kcat: 96 s⁻¹ and 96 ± 7 s⁻¹
SXA [4]
  Km: 3120 ± 210 µM
  kcat: approximately 81.5 s^−1
  factor by which kcat of SXA is higher than that of the Bacillus pumilus enzyme: 27
  kcat lower than previous determination (Example 1): 15%
  kcat/Km lower than previous determination (Example 1): 25%
[5]; [7]
  kcat: 81.5 ± 2.0 s⁻¹
[5]
  factor by which kcat is higher than that of the Bacillus pumilus enzyme: 27
[5]; [8]
  kcat: approximately 81.5 sec^−1
SXA [3]
  Km: 2700 µM

B1: Selenomonas ruminantium GA192 β-D-xylosidase (SXA, parent SEQ ID NO: 2) variant D127A (Pseudoselenomonas ruminantium; D127A) (protein)
chain: MNIQNPVLKGFNPDPSIVRAGDDYYIATSTFEWFPGVQIHHSKDLVHWHLVAHPLSTTEFLDMKGNPDSGGIWAPDLSYADGKFWLIYTDVKVVDGMWKDCHNYLTTAEDIKGPWSKPILLNGAGFAASLFHDPSGKKYLVNMYWDQRVYHHNFYGIALQEYSVAEEKLIGKPEIIYKGTDIAYTEGPHLYYINDMYYLMTAEGGTTYQHSETIARSKTIHGPYEIQPDYPLLSAWKEVHNPLQKCGHASLVETQNGQWYLAHLTGRPLPAPAGFPSREREQHAFCPLGRETAIQKIEWQDGWPVVVGGQQGSLEVEAPDLPQQEWAPTYEERDDFDKDTLNINFQTLRIPFSEHLGSLTARPGFLRLYGRESLQSKFTQAHIARRWQSFNFDAGTSVEFSPNSFQQMAGLTCYYNTENWSSIHVTWNEEKGRIIDLVTADNGTFSMPLAGAEIPIPDEVKTVHFKVSVRGRIYQYAYSFDGETFHTLPIELPSWKLSDDYVRGGGFFTGAFVGINAIDITGTALPADFDYFTYKELD
[6]
  Km: 881 ± 59 µM
